{
  "source": "patent US20180303817A1",
  "about": "“THERAPEUTIC AGENT FOR BREAST CANCER” (Eisai R&D Management Co., Ltd., priority 2015, published 2018)",
  "key": {"[1]": {"assay": "Changes in body weight over time in MFM223 tumor-bearing nude mice", "type": "in vivo, nude mice (BALB/cAJcl-nu/nu, female)", "method": "(§1) Four nude mice (BALB/cAJcl-nu/nu, female, CLEA Japan, Inc.) per group were used to evaluate an anti-tumor effect when compound A was administered.\n(§2) Compound A as obtained in Production Example 1 was dissolved at a concentration of 0.625 mg/mL, or 2.5 mg/mL in purified water.\n(§3) Then, the solution was orally administered at a dose of 20 mL/kg, i.e., 12.5 mg/kg or 50 mg/kg, once a day for 12 days to the mice of each group. Purified water was administered at 20 mL/kg to the control group.\n(§4) On day 3, 7, and 12 after initiation of the administration, the tumor volume of each mouse was measured. In addition, Table 2 and FIG. 2 show changes in body weight over time."}, "[2]": {"test_system": "human-derived breast cancer cell line MFM223", "assay": "Anti-tumor effect of compound A in nude mice with subcutaneously transplanted human breast cancer cell line MFM223 (tumor volume)", "type": "in vivo, nude mice (BALB/cAJcl-nu/nu, female)", "method": "as §1\nA human-derived breast cancer cell line MFM223 (ECACC) was subjected to preparatory conditioning. The MFM223 cells were suspended at a concentration of 2×10^8 cells/mL in HBSS (Wako Pure Chemical Industries, Ltd.). To the resulting suspension was added an equal volume of Matrigel™ matrix (Becton, Dickinson and Company, Japan), and the mixture was mixed sufficiently. Then, 0.1 mL of the mixture was subcutaneously transplanted into the right flank of each nude mouse (CAnN.Cg-Foxnlnu/Crlalj, female, Charles River Laboratories International, Inc.). During rearing, β-estradiol (Wako Pure Chemical Industries, Ltd.) prepared at a final concentration of 2.5 μg/mL in drinking water was orally administered. 46 Days after the transplantation, a tumor formed was resected and cut into small pieces. HBSS containing Type I collagenase (SIGMA) at a final concentration of 380 units/mL and Deoxyribonuclease I (SIGMA) at a final concentration of 160 K units/mL was added thereto, and the mixture was stirred at 37° C. After the mixture was made to pass through a 100-μm cell strainer (Falcon®) and centrifuged to collect the cells, those cells were cultured in 10% bovine serum-containing EMEM culture medium.\nThe cells as so obtained were suspended at a concentration of 1.4×10^8 cells/mL in 10% bovine serum-containing EMEM culture medium (Wako Pure Chemical Industries, Ltd.). To the resulting suspension was added an equal volume of Matrigel™ matrix (Becton, Dickinson and Company, Japan), and the resulting mixture was mixed sufficiently. Next, 0.1 mL of the mixture was subcutaneously transplanted into the right flank of each mouse, and then, the anti-tumor effect was evaluated.\n20 Days after the transplantation, an electronic digital caliper (Digimatic™ Caliper; Mitutoyo Corporation) was used to measure the long and short diameters of a tumor of interest. The mice were grouped such that each group had substantially the same average of the tumor volumes. Note that each tumor volume was calculated by using the following equation:\nTumor Volume (mm^3)=Long Diameter (mm)×Short Diameter (mm)×Short Diameter (mm)/2.\nas §2, §3, §4"}, "[3]": {"conditions": "12.5 mg/kg orally once a day, Day 3"}, "[4]": {"conditions": "12.5 mg/kg orally once a day, Day 7"}, "[5]": {"conditions": "12.5 mg/kg orally once a day, Day 12"}, "[6]": {"conditions": "50 mg/kg orally once a day, Day 3"}, "[7]": {"conditions": "50 mg/kg orally once a day, Day 7"}, "[8]": {"conditions": "50 mg/kg orally once a day, Day 12"}},
  "data": [
    {"smiles": "CNC(=O)n1ccc2cc(Oc3ccnc(NC(=O)c4ccc(C5CCN(CCO)CC5)cc4)c3)c(OCCOC)cc21", "note": "[Compound A, 5-((2-(4-(1-(2-hydroxyethyl)piperidin-4-yl)benzamide)pyridin-4-yl)oxy)-6-(2-methoxyethoxy)-N-methyl-1H-indole-1-carboxamide 1.5 succinate]", "values": [
      {"measurement": "Changes in body weight over time", "setting": "[1]; 12.5 mg/kg orally once a day, Day 0", "value": 21.1, "unit": "g"},
      {"measurement": "Changes in body weight over time", "setting": "[1]; [3]", "value": 21.4, "unit": "g"},
      {"measurement": "Changes in body weight over time", "setting": "[1]; [4]", "value": 22.6, "unit": "g"},
      {"measurement": "Changes in body weight over time", "setting": "[1]; [5]", "value": 23.2, "unit": "g"},
      {"measurement": "Changes in body weight over time", "setting": "[1]; 50 mg/kg orally once a day, Day 0", "value": 21.5, "unit": "g"},
      {"measurement": "Changes in body weight over time", "setting": "[1]; [6]", "value": 22.8, "unit": "g"},
      {"measurement": "Changes in body weight over time", "setting": "[1]; [7]", "value": 23.8, "unit": "g"},
      {"measurement": "Changes in body weight over time", "setting": "[1]; [8]", "value": 24.0, "unit": "g"},
      {"measurement": "Changes in tumor volume over time", "setting": "[2]; 12.5 mg/kg orally once a day, Day 0 (at grouping, before treatment effect)", "value": 151.6, "unit": "mm^3"},
      {"measurement": "Changes in tumor volume over time", "setting": "[2]; [3]", "value": 139.0, "unit": "mm^3"},
      {"measurement": "Changes in tumor volume over time", "setting": "[2]; [4]", "value": 143.8, "unit": "mm^3"},
      {"measurement": "Changes in tumor volume over time", "setting": "[2]; [5]", "value": 148.2, "unit": "mm^3"},
      {"measurement": "Changes in tumor volume over time", "setting": "[2]; 50 mg/kg orally once a day, Day 0 (at grouping, before treatment effect)", "value": 151.6, "unit": "mm^3"},
      {"measurement": "Changes in tumor volume over time", "setting": "[2]; [6]", "value": 112.8, "unit": "mm^3"},
      {"measurement": "Changes in tumor volume over time", "setting": "[2]; [7]", "value": 99.3, "unit": "mm^3"},
      {"measurement": "Changes in tumor volume over time", "setting": "[2]; [8]", "value": 87.2, "unit": "mm^3"}
    ]}
  ]
}
